Test results from patent US10759757B2, “Crystalline contrast agent for magnetic resonance imaging, kit and composition comprising it and their use” (Southern Medical University, priority 2016, dated 2020).
Read-outs that look alike come from different tables or passages of the source.

Assays:
[1] = Longitudinal relaxation time (T1) measurement, r1 relaxivity in deionized water; format: physicochemical
Experimental: IR spectra were recorded on a […] 550 infrared spectrometer. Elemental analyses for C, H, and N were performed on an EA1110 CHNS elemental analyzer. Thermogravimetric analysis (TGA) was performed on an SDTA851 Thermogravimetric Analyzer at a heating rate of 10° C. min^-1 under a nitrogen gas flow in an Al2O3 pan. Powder X-ray diffraction (PXRD) spectra were recorded with a Rigaku D/max-2200/PC. The X-ray generated from a sealed Cu tube was mono-chromated by a graphite crystal and collimated by a 0.5 mm MONOCAP (λ Cu-Kα=1.54178 Å). The tube voltage and current were 40 kV and 40 mA, respectively. […] The measurement of the longitudinal relaxation time T1 was conducted at 30° C. Five samples of compounds 1 and 2 were prepared with the concentrations of 31.25, 62.5, 125, 250, and 500 μM in deionized water, respectively. Before the T1 test, these samples were ultrasonicated for 2 min to dissolve the compounds homogeneously in deionized water. The T1 of deionized water was tested as background. The T1 of the MOF solution was corrected from the background. The measurement time of each sample was ca. 2 min. […] On each image, signal intensities were measured by drawing ROIs in the center of each vial. The T1 relaxation times were performed by fitting the acquired inversion recovery images to a following equation: […]1)), where M and M0 are measured and initial magnetization, respectively. […]

[2] = literature values; cited from earlier work

| SMILES | r1 relaxivity ([1]; 0.5 T, 30° C., deionized water, 31.25 to 500 μM) | relaxivity rates (r1), MRI phantom measurement ([1]; 3T, in water) | r1 relaxivity [2] |
| --- | --- | --- | --- |
| O=C([O-])CN(CCN(CC(=O)[O-])CC(=O)O)CCN(CC(=O)[O-])CC(=O)O.[Gd+3] [Gd-DTPA] | 4.87 mM⁻¹ s⁻¹ | 4.98 mM^−1S^−1 |  |
| CNC(=O)CN(CCN(CCN(CC(=O)[O-])CC(=O)NC)CC(=O)[O-])CC(=O)[O-].[Gd+3] [OmniScan] |  |  | 4.1 mM⁻¹ s⁻¹ |
